Results on 71 sequences are retold here after the OligoGym collection.

Several values for one entry are separate records, joined by “and”; a condition that tells them apart may be missing. Equal entries are not always repeated. After the bases stand the sugars from the 5' end (letter, count) and the backbone: PS all phosphorothioate, else s phosphorothioate and o phosphodiester by linkage. Methylation of C is not given here. k = constrained ethyl (cEt); d = 2'-deoxy (DNA)

This series deals with MALAT1. Conditions: ASO, A431, 0.005 µM.
With TCTCGGGCTGCAGGCT (sugars k3 d10 k3, PS), the target mRNA inhibition is 20%. In the case of TCTCTAACCCAGTTTG (sugars k3 d10 k3, PS) it was 16%. The result for TCTGAAGAATACCATC (sugars k3 d10 k3, PS) reads 15%.

Take TCTGATCATAATCTCC (sugars k3 d10 k3, PS): the target mRNA inhibition worked out at 39%.

For the sequence TCTGGAAAAGCTAGGG (sugars k3 d10 k3, PS), the target mRNA inhibition was -21%.

With TCTGTGCTAGATCAAA (sugars k3 d10 k3, PS), the target mRNA inhibition came to 61%. The result for TCTTCTAAATTGGTTC (sugars k3 d10 k3, PS) reads 49%.

As to TGAAGAATACCATCTG (sugars k3 d10 k3, PS), the target mRNA inhibition is 30%. The result for TGAAGGATGAAATGCC (sugars k3 d10 k3, PS) reads 29%; that for TGACACTTCTCTTGAC (sugars k3 d10 k3, PS), 30%; that for TGACCTTAGGATAATA (sugars k3 d10 k3, PS), 62%.

With TGAGTGAAGTGTACTA (sugars k3 d10 k3, PS), the target mRNA inhibition was 42%. The result for TGATAACGAAGAGATA (sugars k3 d10 k3, PS) reads 15%.

On to TGATAGTTCAGGGCTT (sugars k3 d10 k3, PS), for which the target mRNA inhibition was determined as 9%. The result for TGATCATAATCTCCCA (sugars k3 d10 k3, PS) reads 43%; that for TGCACTAAAGATCACT (sugars k3 d10 k3, PS), 37%; that for TGCCAAGCCAAGCCGC (sugars k3 d10 k3, PS), 13%.

Consider TGCCTTTACTTATCAA (sugars k3 d10 k3, PS), for which the target mRNA inhibition was found to be 26%. The result for TGCTCCTCAGTCCTAG (sugars k3 d10 k3, PS) reads 26%. For the sequence TGCTGTTACCTCCCAC (sugars k3 d10 k3, PS), the target mRNA inhibition turned out to be 14%.

Consider TGGAAAGCGAGTTCAA (sugars k3 d10 k3, PS), for which the target mRNA inhibition is -4%. As for TGGCCTACTCAAGCTC (sugars k3 d10 k3, PS), the target mRNA inhibition is -8%. For TGGGAATACTCTTCCA (sugars k3 d10 k3, PS), the target mRNA inhibition is 11%.

TGGGAGTTACTTGCCA (sugars k3 d10 k3, PS): the target mRNA inhibition stood at 19%. In the case of TGGTGAATTCAACTGG (sugars k3 d10 k3, PS) it was 33%; in that of TGGTTAGGTATGAGCT (sugars k3 d10 k3, PS), 4%; in that of TGTAAACCTGTGGTGG (sugars k3 d10 k3, PS), 48%. The result for TGTACTATCCCATCAC (sugars k3 d10 k3, PS) reads 51% and 71%; that for TGTCAATAGTACTATA (sugars k3 d10 k3, PS), 18%; that for TGTCAATTTATAGACC (sugars k3 d10 k3, PS), 6%. The result for TGTGTTATGCCTGGTT (sugars k3 d10 k3, PS) reads 1%. For TGTTATGTTCACCTGA (sugars k3 d10 k3, PS), the target mRNA inhibition came to 35%. As to TGTTTAAGTCACCTTC (sugars k3 d10 k3, PS), the target mRNA inhibition was 74% and 63%. In the case of TTAACAATTTGCAGGC (sugars k3 d10 k3, PS) it was 66% and 79%; in that of TTAACTTCCCCCAGCT (sugars k3 d10 k3, PS), 0%; in that of TTAAGAACTCCACAGC (sugars k3 d10 k3, PS), 46%. In the case of TTAAGACCAAGGGAGG (sugars k3 d10 k3, PS) it was 29%. In the case of TTAATGCTAGTCCTCA (sugars k3 d10 k3, PS) it was 39%. In the case of TTAATGTCAGCCCAGT (sugars k3 d10 k3, PS), the target mRNA inhibition stood at 37%. With TTACACATCCAAACTC (sugars k3 d10 k3, PS), the target mRNA inhibition is 1%. The result for TTACAGTTCTTGAACA (sugars k3 d10 k3, PS) reads 25%; that for TTACCATAAGTAAGTT (sugars k3 d10 k3, PS), -20%. The result for TTACTCTAATCACTGT (sugars k3 d10 k3, PS) reads 33%; that for TTACTTCCGTTACGAA (sugars k3 d10 k3, PS), -8%; that for TTAGTAACCTATTGAC (sugars k3 d10 k3, PS), 34%. In the case of TTAGTAGCTTTTTGAT (sugars k3 d10 k3, PS) it was 39%; in that of TTATCTAAATACCACC (sugars k3 d10 k3, PS), 2%.

For the sequence TTATCTGCGGTTTCCT (sugars k3 d10 k3, PS), the target mRNA inhibition worked out at 45%. In the case of TTATTTAGAGGGCCTC (sugars k3 d10 k3, PS) it was 57% and 72%; in that of TTCAAACTAAGCTACT (sugars k3 d10 k3, PS), 31%. With TTCAAGCACCGCTTGA (sugars k3 d10 k3, PS), the target mRNA inhibition was 12% and 25%. The result for TTCAAGCATTCCTTCG (sugars k3 d10 k3, PS) reads 62%; that for TTCAGACAAGATTCAT (sugars k3 d10 k3, PS), 51% and 37%; that for TTCAGGATCATTAAGC (sugars k3 d10 k3, PS), 18%. In the case of TTCCACAGACCTCAAC (sugars k3 d10 k3, PS), the target mRNA inhibition was -4%.

As for TTCCTTCGGATGCTTC (sugars k3 d10 k3, PS), the target mRNA inhibition turned out to be 50%. In the case of TTCGATCACCTTCCGC (sugars k3 d10 k3, PS) it was 12%. In the case of TTCGCTTTTATTCTGC (sugars k3 d10 k3, PS) it was 69% and 88%.

In the case of TTCGGTTAAAAATAGG (sugars k3 d10 k3, PS), the target mRNA inhibition is -7%. In the case of TTCTAGACAGACCTAA (sugars k3 d10 k3, PS) it was 29%; in that of TTCTATAGTCTGAAGA (sugars k3 d10 k3, PS), 14%. In the case of TTCTTAACAGCTTATG (sugars k3 d10 k3, PS) it was 21%; in that of TTCTTCGGTTAAAAAT (sugars k3 d10 k3, PS), 2%. In the case of TTGACCTTAGGATAAT (sugars k3 d10 k3, PS) it was 47%; in that of TTGCACTCGCTCCTTC (sugars k3 d10 k3, PS), 33%. TTGCAGGGACGGTTGA (sugars k3 d10 k3, PS): the target mRNA inhibition is -10%. With TTGCTCACATGCCAGT (sugars k3 d10 k3, PS), the target mRNA inhibition is 40%. On to TTGGCACACTGGCATG (sugars k3 d10 k3, PS), for which the target mRNA inhibition came out at 24%. In the case of TTTAAAGTAGACCAAC (sugars k3 d10 k3, PS) it was -49%; in that of TTTAAATGACGCAATT (sugars k3 d10 k3, PS), 15%; in that of TTTAACTTCCCCCAGC (sugars k3 d10 k3, PS), -2%.
